Earlier results as cited in patent publication US20030180373A1, “Method for viral inactivation of hydro-alcoholic solutions” (priority 2000, published 2003).

Tested on: viruses of Norwalk and Norwalk type
Settings: disinfectants conventionally used; ethanol at a concentration of 75%

Structure (SMILES) | Effect of the disinfectant on the virus
[Na+].[O-]Cl [bleach] | capable of destroying the virus
CCO [ethanol] | no effect
O=CCCCC=O [glutaraldehyde] | capable of destroying the virus
